# Values joined by “and” are separate entries in the source; they are usually repeats but may differ in a detail not shown here. Equal entries are not always repeated.
# What was measured:
# [1] = target: T1, Muscarinic acetylcholine receptor M5 (Homo sapiens, UniProt P08912)
# T1 sequence (P08912 whole entry): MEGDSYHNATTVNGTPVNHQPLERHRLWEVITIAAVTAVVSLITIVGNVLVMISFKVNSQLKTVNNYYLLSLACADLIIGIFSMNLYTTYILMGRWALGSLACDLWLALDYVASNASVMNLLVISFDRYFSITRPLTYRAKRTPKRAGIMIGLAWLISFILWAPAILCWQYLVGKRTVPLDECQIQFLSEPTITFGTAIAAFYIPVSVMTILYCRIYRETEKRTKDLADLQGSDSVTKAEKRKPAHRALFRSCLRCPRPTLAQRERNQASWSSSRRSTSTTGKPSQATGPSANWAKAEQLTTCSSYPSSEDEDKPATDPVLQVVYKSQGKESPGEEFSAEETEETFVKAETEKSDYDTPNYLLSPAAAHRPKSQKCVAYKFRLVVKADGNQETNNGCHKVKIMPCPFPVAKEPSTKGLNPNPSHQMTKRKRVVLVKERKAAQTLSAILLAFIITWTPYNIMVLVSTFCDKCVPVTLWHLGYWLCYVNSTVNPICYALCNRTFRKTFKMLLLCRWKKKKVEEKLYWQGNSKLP
# [2] = target: T2, Muscarinic acetylcholine receptor M4 (Homo sapiens, UniProt P08173)
# T2 sequence (P08173 whole entry): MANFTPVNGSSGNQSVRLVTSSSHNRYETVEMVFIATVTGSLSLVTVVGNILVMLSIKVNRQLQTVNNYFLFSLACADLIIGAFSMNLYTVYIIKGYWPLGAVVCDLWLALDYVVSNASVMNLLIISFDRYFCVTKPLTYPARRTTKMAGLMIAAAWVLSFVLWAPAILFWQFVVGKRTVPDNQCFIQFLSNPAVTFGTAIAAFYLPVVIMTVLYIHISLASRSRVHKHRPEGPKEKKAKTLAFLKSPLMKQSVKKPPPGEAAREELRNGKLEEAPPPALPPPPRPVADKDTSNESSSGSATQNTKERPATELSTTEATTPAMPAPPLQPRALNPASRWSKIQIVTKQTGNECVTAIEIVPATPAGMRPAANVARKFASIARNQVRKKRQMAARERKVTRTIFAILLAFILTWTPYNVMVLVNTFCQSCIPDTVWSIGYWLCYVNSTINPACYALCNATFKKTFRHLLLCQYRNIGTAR
# [3] = target: T3, Muscarinic acetylcholine receptor M2 (Homo sapiens, UniProt P08172)
# T3 sequence (P08172 whole entry): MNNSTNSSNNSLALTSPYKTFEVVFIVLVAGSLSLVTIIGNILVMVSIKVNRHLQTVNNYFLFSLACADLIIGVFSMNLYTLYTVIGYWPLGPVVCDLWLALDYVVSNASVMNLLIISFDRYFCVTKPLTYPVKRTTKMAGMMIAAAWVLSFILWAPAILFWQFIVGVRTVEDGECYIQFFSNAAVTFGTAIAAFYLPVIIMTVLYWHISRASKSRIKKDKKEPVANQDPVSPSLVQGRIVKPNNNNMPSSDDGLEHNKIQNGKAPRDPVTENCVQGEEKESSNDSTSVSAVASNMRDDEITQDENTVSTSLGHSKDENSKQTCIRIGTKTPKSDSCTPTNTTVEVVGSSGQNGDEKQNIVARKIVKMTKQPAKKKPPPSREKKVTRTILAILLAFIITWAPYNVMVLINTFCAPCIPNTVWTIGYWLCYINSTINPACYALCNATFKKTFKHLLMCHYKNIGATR
Structure (SMILES),Ki [1] [nM],Ki [2],Ki [3]
C[N+]1(C)CCC(OC(=O)C(c2ccccc2)c2ccccc2)CC1,1.05,,
CCCN(CCC)CC1CCCCN1CCNC(=O)N1c2ccccc2C(=O)Nc2cccnc21 (stereo not drawn),537,10 nM,6.03 nM
"CCN(CC)CC1CCCCN1CC(=O)N1c2ccccc2NC(=O)c2ccccc21 (single isomer, unassigned; (+)) [CAS_121029-35-4]",3020,162 nM,55 nM
O[Si](CCCN1CCCCC1)(c1ccc(F)cc1)C1CCCCC1 (stereo not drawn) [CAS_5311091],93.3,31.6 nM,132 nM
C[C@H]1OC(=O)C2C[C@H]3CCCC[C@@H]3[C@@H](/C=C/[C@@H]3CCC[C@H](C)N3C)C21 (stereo partly drawn) [HIMBACINE],490,,10 nM
COc1ccccc1CNCCCCCCNCCCCCCCCNCCCCCCNCc1ccccc1OC [METHOCTRAMINE],135,31.6 nM,
CCN(CC)CCCCC1CCN(CC(=O)N2c3ccccc3C(=O)Nc3cccnc32)CC1 [NSC_129989],832,6.46 nM,
OC(C#CCN1CCCCC1)(c1ccccc1)C1CCCCC1 (stereo not drawn) [NSC_2054314],,3.02 nM and 19.5 nM,20.9 nM and 72.4 nM

# — BindingDB's records for PubMed 1994002 (National Institute of Neurological Disorders and Stroke, 1991)
